{"source": "patent US7692011B2", "about": "“8-hydroxy and 8-mercapto quinazolinones” (Prana Biotechnology Limited, priority 2002, dated 2010)", "assay": "Assay 13 Blood brain barrier penetration (rat brain perfusion)", "assay_type": "in vivo", "settings": "50 μM infusion, 1.5 minutes", "protocol": "Assay 13. Blood Brain Barrier Penetration\nThe test compounds were dissolved in DMSO and phosphate buffered saline (PBS) was added to obtain solutions at a concentration of 50 μM in PBS containing 1.25-2.5% DMSO. A trace amount of ^14C-sucrose was added to each stock infusion solution (approx 0.01 μCi/mL) to act as Blood-Brain Barrier (BBB)-impermeable marker in order to assess the integrity of the BBB during each perfusion and to estimate the volume of the residual vascular space (RVS) in samples of brain tissue (ie: the volume of fluid remaining inside the lumen of blood vessels at the end of each perfusion). […]\nAfter 1.5 minutes, the infusion pump automatically stopped, the cannula was withdrawn from the carotid artery and a sample of the infusion solution (1-1.5 mL) was then collected from the tip of the infusion cannula. […] The brain tissue samples from each animal were frozen at −30° C., homogenized and weighed aliquots analysed by LC-MS to give total brain concentration. […]\nSmall aliquots from each brain tissue sample and the corresponding infusion solution were analysed by liquid scintillation counting to determine the level of ^14C-sucrose. The residual vascular space (RVS) in each brain tissue sample was calculated by dividing the measured concentration of sucrose in brain tissue (dpm/mg) by its concentration in the corresponding infusion solution (dpm/μL). […]", "data": [{"smiles": "O=c1c2c(Cl)cc(Cl)c(O)c2ncn1C1CC1", "note": "[PBT-1061, 5,7-Dichloro-3-cyclopropyl-8-hydroxy-3H-quinazolin-4-one]", "values": [{"measurement": "Assay 13 Rat brain perfusion (brain uptake ratio)", "value": ">50", "unit": "%"}]}]}
